Among the test systems are SK-MEL-5 melanoma; MDA-MB-231 breast; IGROV1 ovarian; DU-145 prostate; SK-MEL-2 melanoma; OVCAR-8 ovarian; SNB-19 CNS; SK-MEL-28 melanoma; LOX IMVI melanoma; T-47D breast.
Common to all, as to assay: inhibition of tumour cell growth, NCI panel, 48 h

The structures appear in SMILES notation.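 Cells were grown in 96-well plates and exposed to each compound for 48 hours at five concentrations; endpoints were interpolated linearly between bracketing concentrations, or set to the highest concentration if not reached. The concentration for 50% growth inhibition is given as GI50. TGI marks complete inhibition of growth.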 A value given as a limit tells only on which side of the number the result lay.

Turning to `O=S(=O)(NCCCNc1nccc(-c2c(-c3ccc(O)cc3)nc3sccn23)n1)c1ccc(F)cc1`, the GI50 in the test with SK-MEL-5 melanoma was 1.21 µM; with MDA-MB-231 breast, 1.82 µM; in the test with IGROV1 ovarian, 2.85 µM; in the test with DU-145 prostate, 2.52 µM; with SK-MEL-2 melanoma it was 1.18 µM; with OVCAR-8 ovarian, 1.57 µM. Moreover, the GI50 with SNB-19 CNS was 4.27 µM; with SK-MEL-28 melanoma, 0.0528 µM; in the test with LOX IMVI melanoma, 0.567 µM; with T-47D breast, 1.39 µM. The TGI with SK-MEL-5 melanoma was 2.67 µM; in the test on MDA-MB-231 breast, above 100 µM; in the test with IGROV1 ovarian, 8.78 µM; in the test with DU-145 prostate it was 9.56 µM; in the test with SK-MEL-2 melanoma it was 2.81 µM; with OVCAR-8 ovarian it was 13.3 µM. The TGI was above 100 µM with SNB-19 CNS, 6.23 µM with SK-MEL-28 melanoma, 5.44 µM in the test with LOX IMVI melanoma and 3.55 µM in the test with T-47D breast.

Regarding `CCN(CC)c1ccc(/C=N/NC(=O)CSc2nc3ccccc3c(=O)n2CCc2ccc(S(N)(=O)=O)cc2)c(O)c1`, the GI50 was 2.49 µM in the test with SK-MEL-5 melanoma; 2.27 µM in the test on MDA-MB-231 breast; 1.48 µM with IGROV1 ovarian; 1.82 µM in the test with DU-145 prostate; 4.34 µM with SK-MEL-2 melanoma; 1.03 µM in the test with OVCAR-8 ovarian. For the same compound, the GI50 in the test on SNB-19 CNS was 3.72 µM; in the test on SK-MEL-28 melanoma, 2.69 µM; in the test on LOX IMVI melanoma, 1.09 µM; in the test with T-47D breast, 1.01 µM. Also, the TGI with SK-MEL-5 melanoma was 14.9 µM; with MDA-MB-231 breast, 50.2 µM; in the test on IGROV1 ovarian it was above 100 µM; in the test on DU-145 prostate it was above 100 µM; in the test with SK-MEL-2 melanoma it was above 100 µM; in the test with OVCAR-8 ovarian it was above 100 µM. The TGI was above 100 µM in the test on SNB-19 CNS, above 100 µM in the test on SK-MEL-28 melanoma, 6.66 µM in the test with LOX IMVI melanoma and above 100 µM in the test on T-47D breast.

As for `O=c1c2c(=NCCN3CCCC3)cc3c(=O)n(CCCN4CCOCC4)c(=O)c4c(-c5ccc(CN6CCCC6)cc5)cc(c(O)n1CCCN1CCOCC1)c2c4-3`, the GI50 in the test with SK-MEL-5 melanoma is 0.133 µM; with MDA-MB-231 breast it was 0.0397 µM; in the test on IGROV1 ovarian, 0.0399 µM; in the test on DU-145 prostate, 0.103 µM; in the test with SK-MEL-2 melanoma it was 0.112 µM; in the test on OVCAR-8 ovarian, below 0.0255 µM. For the same compound, the GI50 with SNB-19 CNS was 0.054 µM; with SK-MEL-28 melanoma it was 0.156 µM; in the test with LOX IMVI melanoma, 0.0369 µM; in the test on T-47D breast it was 0.1 µM. Moreover, the TGI in the test with SK-MEL-5 melanoma is 0.3 µM; with MDA-MB-231 breast it was 0.384 µM; with IGROV1 ovarian it was 1.47 µM; in the test on DU-145 prostate it was 1.23 µM; in the test with SK-MEL-2 melanoma, 0.382 µM; in the test on OVCAR-8 ovarian, 2.24 µM. Also, the TGI in the test on SNB-19 CNS is 1.2 µM; in the test with SK-MEL-28 melanoma it was 0.557 µM; with LOX IMVI melanoma, 0.234 µM; in the test with T-47D breast, 0.897 µM.

Regarding `Cc1nc([P+](c2ccccc2)(c2ccccc2)c2ccccc2)c(Sc2sc(-c3ccccc3)nc2[P+](c2ccccc2)(c2ccccc2)c2ccccc2)o1`, the GI50 in the test with SK-MEL-5 melanoma is 1.48 µM; in the test with MDA-MB-231 breast it was 1.86 µM; with IGROV1 ovarian, 1.4 µM; in the test with DU-145 prostate, 1.22 µM; with SK-MEL-2 melanoma it was 2.15 µM; with OVCAR-8 ovarian, 0.867 µM. Further, the GI50 in the test on SNB-19 CNS was 1.6 µM; with SK-MEL-28 melanoma, 1.99 µM; in the test on LOX IMVI melanoma, 1.82 µM; with T-47D breast it was 0.327 µM. Further, the TGI with SK-MEL-5 melanoma stood at 2.85 µM; in the test on MDA-MB-231 breast, 6.27 µM; in the test with IGROV1 ovarian it was 4.83 µM; with DU-145 prostate it was 4.96 µM; in the test with SK-MEL-2 melanoma, 4.92 µM; in the test with OVCAR-8 ovarian, 11.6 µM. Moreover, the TGI in the test on SNB-19 CNS is 12.2 µM; with SK-MEL-28 melanoma, 10.5 µM; in the test with LOX IMVI melanoma, 5.71 µM; in the test with T-47D breast, 8.81 µM.

Regarding `CCOC(=O)c1ccc(NC(=O)Nc2nncs2)cc1`, the GI50 in the test on SK-MEL-5 melanoma was 0.0672 µM; in the test on MDA-MB-231 breast, 0.532 µM; in the test on IGROV1 ovarian it was 0.374 µM; with DU-145 prostate it was 0.309 µM; with SK-MEL-2 melanoma, 0.734 µM; in the test with OVCAR-8 ovarian, 0.371 µM. Also, the GI50 in the test on SNB-19 CNS was 0.456 µM; in the test on SK-MEL-28 melanoma it was 0.25 µM; in the test with LOX IMVI melanoma, 0.485 µM; in the test on T-47D breast, 0.584 µM. Besides, the TGI was found to be 5.16 µM with SK-MEL-5 melanoma; 6.35 µM in the test on MDA-MB-231 breast; 14.8 µM with IGROV1 ovarian; 4.11 µM in the test on DU-145 prostate; 24 µM with SK-MEL-2 melanoma; 13.5 µM in the test with OVCAR-8 ovarian. Also, the TGI in the test on SNB-19 CNS was above 61.1 µM; in the test on SK-MEL-28 melanoma it was 56 µM; in the test with LOX IMVI melanoma it was 7.67 µM; in the test with T-47D breast, 34.4 µM.

In the case of `CC(=O)O[C@H]1C(=O)[C@@]2(C)C(C(OC(=O)c3ccccc3)[C@]3(O)C[C@H](OC(=O)C(OC(=O)CCCC(=O)NCCCN(C)C)C(NC(=O)c4ccccc4)c4ccccc4)C(C)=C1C3(C)C)C1(OC(C)=O)COC1C[C@@H]2O` (stereo not given in full), the TGI in the test on SK-MEL-5 melanoma stood at 18.6 µM; with MDA-MB-231 breast, 13.8 µM; in the test with IGROV1 ovarian, 59 µM; with DU-145 prostate, 0.0666 µM; in the test on SK-MEL-2 melanoma it was 24.3 µM; in the test with OVCAR-8 ovarian, 15.3 µM. In addition, the TGI in the test with SNB-19 CNS was above 100 µM; with SK-MEL-28 melanoma, 55.5 µM; with LOX IMVI melanoma, 19.2 µM; in the test on T-47D breast, 47.8 µM.

For the compound `NS(=O)(=O)c1ccc(Nc2cc(-c3cccc(O)c3)[nH]n2)cc1`, the GI50 is 14.8 µM with SK-MEL-5 melanoma; 18 µM in the test on MDA-MB-231 breast; above 25 µM in the test on IGROV1 ovarian; above 25 µM in the test with DU-145 prostate; above 25 µM in the test on SK-MEL-2 melanoma; above 22.6 µM in the test on OVCAR-8 ovarian. The GI50 in the test on SNB-19 CNS was above 25 µM; with SK-MEL-28 melanoma it was above 25 µM; in the test with LOX IMVI melanoma, above 25 µM; in the test with T-47D breast, 10 µM. Also, the TGI in the test with SK-MEL-5 melanoma, with MDA-MB-231 breast, with IGROV1 ovarian, in the test with DU-145 prostate, in the test on SK-MEL-2 melanoma and in the test on OVCAR-8 ovarian was above 25 µM in each case. In addition, the TGI in the test with SNB-19 CNS, in the test with SK-MEL-28 melanoma, with LOX IMVI melanoma and in the test with T-47D breast was above 25 µM in each case.

For the compound `CC(C)c1[nH]nc(C(N)=O)c1N=NN(C)C`, the TGI in the test with SK-MEL-5 melanoma, in the test with MDA-MB-231 breast, in the test on IGROV1 ovarian, in the test with DU-145 prostate, in the test with SK-MEL-2 melanoma and in the test with OVCAR-8 ovarian was above 100 µM in each case. In addition, the TGI in the test with SNB-19 CNS, in the test with SK-MEL-28 melanoma, in the test with LOX IMVI melanoma and in the test on T-47D breast was above 100 µM throughout.

For the origin of these results see PubChem BioAssay (NCI).
